Values belong to the molecule of their own block, whether it stands above or below them.
Tests used:
[1] = biological target: T1, N(G),N(G)-dimethylarginine dimethylaminohydrolase 1 (Homo sapiens, UniProt O94760); test: Inhibition of recombinant human DDAH1 expressed in HEK293 cells using ADMA as substrate assessed as inhibition constant preincubated for 5 mins
[2] = biological target: T1, N(G),N(G)-dimethylarginine dimethylaminohydrolase 1; test: Inhibition of recombinant human DDAH1 expressed in HEK293 cells using ADMA as substrate preincubated for 5 mins
Nitric oxide synthase 1 [3] = biological target: T2, Nitric oxide synthase 1 (Homo sapiens, UniProt P29475); test: Inhibition of nNOS in human DLD-1 cells assessed as reduction of L-[14C]arginine to L-[14C]citrulline conversion; type: cell-based
T2 sequence (P29475 whole entry): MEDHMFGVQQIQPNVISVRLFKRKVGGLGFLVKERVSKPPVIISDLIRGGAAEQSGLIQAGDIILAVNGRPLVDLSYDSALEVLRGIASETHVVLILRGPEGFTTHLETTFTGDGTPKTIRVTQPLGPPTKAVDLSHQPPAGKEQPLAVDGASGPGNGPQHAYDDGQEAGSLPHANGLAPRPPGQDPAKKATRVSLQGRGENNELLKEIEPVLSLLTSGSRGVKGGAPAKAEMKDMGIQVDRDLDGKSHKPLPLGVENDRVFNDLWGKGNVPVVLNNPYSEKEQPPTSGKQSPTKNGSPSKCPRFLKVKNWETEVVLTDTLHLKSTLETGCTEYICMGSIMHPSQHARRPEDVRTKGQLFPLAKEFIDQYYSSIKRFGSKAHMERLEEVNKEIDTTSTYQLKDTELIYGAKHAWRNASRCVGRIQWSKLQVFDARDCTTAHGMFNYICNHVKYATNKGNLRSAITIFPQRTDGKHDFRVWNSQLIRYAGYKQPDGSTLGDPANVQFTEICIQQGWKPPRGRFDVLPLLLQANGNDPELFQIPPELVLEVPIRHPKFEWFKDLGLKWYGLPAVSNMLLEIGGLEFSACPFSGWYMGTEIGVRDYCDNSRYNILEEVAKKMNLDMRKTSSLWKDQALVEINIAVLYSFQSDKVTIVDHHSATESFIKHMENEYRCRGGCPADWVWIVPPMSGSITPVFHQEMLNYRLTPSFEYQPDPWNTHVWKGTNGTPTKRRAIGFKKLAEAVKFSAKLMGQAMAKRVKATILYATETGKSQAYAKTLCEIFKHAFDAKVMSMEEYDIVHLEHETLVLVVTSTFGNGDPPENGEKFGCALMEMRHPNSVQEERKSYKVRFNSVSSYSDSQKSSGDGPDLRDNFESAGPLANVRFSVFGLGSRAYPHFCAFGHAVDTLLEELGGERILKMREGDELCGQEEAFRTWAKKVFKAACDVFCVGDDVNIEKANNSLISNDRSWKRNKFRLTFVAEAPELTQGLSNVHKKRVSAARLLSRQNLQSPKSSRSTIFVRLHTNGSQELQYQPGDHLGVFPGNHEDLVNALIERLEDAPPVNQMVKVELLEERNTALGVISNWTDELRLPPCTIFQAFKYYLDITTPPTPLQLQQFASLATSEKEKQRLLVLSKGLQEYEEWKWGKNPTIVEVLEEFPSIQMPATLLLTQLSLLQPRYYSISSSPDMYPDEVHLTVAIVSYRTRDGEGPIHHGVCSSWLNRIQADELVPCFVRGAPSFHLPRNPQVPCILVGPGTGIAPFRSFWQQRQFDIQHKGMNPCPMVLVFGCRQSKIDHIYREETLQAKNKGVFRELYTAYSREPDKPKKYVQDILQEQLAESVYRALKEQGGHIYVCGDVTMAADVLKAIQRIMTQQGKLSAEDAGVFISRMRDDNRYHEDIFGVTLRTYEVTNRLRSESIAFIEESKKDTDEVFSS

Nitric oxide synthase 3 [4] = biological target: T3, Nitric oxide synthase 3 (Homo sapiens, UniProt P29474); test: Inhibition of eNOS in human DLD-1 cells assessed as reduction of L-[14C]arginine to L-[14C]citrulline conversion; type: cell-based
T3 sequence (P29474 whole entry): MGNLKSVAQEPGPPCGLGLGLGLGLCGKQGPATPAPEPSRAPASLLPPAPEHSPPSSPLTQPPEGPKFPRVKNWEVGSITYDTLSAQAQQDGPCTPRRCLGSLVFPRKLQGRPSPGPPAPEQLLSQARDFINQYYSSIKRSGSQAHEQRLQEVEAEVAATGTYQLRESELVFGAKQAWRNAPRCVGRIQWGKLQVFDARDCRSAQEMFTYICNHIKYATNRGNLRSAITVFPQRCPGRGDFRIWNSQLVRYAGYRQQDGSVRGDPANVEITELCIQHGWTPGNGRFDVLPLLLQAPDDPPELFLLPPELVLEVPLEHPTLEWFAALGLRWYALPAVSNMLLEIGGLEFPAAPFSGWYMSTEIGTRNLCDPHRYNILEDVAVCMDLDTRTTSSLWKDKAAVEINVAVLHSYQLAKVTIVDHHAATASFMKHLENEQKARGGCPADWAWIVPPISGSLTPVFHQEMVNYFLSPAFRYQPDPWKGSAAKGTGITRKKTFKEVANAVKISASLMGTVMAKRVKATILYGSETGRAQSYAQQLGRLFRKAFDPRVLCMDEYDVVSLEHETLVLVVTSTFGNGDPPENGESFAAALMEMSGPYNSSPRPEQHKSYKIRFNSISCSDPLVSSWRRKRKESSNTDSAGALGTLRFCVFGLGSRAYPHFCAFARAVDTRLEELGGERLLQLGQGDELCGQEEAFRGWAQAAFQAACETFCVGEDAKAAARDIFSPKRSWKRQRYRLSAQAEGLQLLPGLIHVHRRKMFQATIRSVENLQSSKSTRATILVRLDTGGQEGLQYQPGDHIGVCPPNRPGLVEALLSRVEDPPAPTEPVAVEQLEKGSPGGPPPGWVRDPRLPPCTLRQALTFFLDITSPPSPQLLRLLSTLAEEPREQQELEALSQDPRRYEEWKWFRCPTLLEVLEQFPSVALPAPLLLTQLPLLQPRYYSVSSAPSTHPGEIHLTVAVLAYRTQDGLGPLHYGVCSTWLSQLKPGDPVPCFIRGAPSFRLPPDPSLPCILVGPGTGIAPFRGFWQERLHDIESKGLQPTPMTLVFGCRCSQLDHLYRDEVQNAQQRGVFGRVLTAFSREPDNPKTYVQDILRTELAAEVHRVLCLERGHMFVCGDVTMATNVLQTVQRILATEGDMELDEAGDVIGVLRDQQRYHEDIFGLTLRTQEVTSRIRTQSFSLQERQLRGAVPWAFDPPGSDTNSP

[5] = biological target: T4, Nitric oxide synthase, inducible (Homo sapiens, UniProt P35228); test: Inhibition of iNOS in human DLD-1 cells assessed as reduction of L-[14C]arginine to L-[14C]citrulline conversion; type: cell-based
T4 sequence (P35228 whole entry): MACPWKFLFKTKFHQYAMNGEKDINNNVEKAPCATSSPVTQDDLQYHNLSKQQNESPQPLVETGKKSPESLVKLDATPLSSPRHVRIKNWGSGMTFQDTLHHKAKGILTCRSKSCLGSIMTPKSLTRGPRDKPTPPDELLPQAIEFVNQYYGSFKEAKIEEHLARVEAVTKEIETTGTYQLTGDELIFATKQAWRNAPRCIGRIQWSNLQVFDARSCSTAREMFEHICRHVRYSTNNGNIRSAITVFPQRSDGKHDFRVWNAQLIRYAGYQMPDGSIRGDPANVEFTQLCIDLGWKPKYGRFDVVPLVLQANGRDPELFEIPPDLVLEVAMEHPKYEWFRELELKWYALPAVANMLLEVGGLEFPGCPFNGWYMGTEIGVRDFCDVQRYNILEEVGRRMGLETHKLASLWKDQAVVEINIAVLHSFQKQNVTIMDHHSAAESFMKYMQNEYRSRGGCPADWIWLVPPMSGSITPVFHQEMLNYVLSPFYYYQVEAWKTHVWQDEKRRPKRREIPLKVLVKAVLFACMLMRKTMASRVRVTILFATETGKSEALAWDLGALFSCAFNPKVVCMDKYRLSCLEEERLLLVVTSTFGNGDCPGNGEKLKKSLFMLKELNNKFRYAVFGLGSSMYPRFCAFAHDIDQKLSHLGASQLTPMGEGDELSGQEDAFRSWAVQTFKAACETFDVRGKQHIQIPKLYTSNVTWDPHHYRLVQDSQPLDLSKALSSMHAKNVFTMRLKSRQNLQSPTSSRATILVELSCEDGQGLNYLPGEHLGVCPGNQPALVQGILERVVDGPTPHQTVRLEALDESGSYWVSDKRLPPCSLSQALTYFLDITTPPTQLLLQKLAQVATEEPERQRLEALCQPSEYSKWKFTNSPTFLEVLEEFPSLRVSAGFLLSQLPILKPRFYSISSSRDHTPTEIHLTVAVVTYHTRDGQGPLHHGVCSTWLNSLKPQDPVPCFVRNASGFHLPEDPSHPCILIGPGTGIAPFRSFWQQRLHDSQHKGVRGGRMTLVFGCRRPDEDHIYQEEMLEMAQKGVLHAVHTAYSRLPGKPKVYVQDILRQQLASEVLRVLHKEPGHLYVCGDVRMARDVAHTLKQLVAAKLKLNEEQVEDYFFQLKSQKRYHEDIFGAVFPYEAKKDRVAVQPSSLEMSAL

[6] = biological target: T4, Nitric oxide synthase, inducible; test: Inhibition of human iNOS expressed in baculovirus infected Spodoptera frugiperda cell using L-arginine as substrate preincubated for 15 mins followed by substrate addition measured after 15 mins by oxyhaemoglobin assay
Nitric oxide synthase 1 [7] = biological target: T2, Nitric oxide synthase 1; test: Inhibition of human nNOS expressed in baculovirus infected Spodoptera frugiperda cell using L-arginine as substrate preincubated for 15 mins followed by substrate addition measured after 15 mins by oxyhaemoglobin assay
Nitric oxide synthase 3 [8] = biological target: T3, Nitric oxide synthase 3; test: Inhibition of human eNOS expressed in baculovirus infected Spodoptera frugiperda cell using L-arginine as substrate preincubated for 15 mins followed by substrate addition measured after 15 mins by oxyhaemoglobin assay
Nitric oxide synthase 1 [9] = biological target: Nitric oxide synthase 1 (Rattus norvegicus, UniProt P29476); test: Inhibition of rat nNOS transfected in HEK293 cells assessed as inhibition constant in presence of NADPH by spectrophotometric analysis; type: cell-based
Sequence of Nitric oxide synthase 1 (Rattus norvegicus, UniProt P29476) (P29476 whole entry): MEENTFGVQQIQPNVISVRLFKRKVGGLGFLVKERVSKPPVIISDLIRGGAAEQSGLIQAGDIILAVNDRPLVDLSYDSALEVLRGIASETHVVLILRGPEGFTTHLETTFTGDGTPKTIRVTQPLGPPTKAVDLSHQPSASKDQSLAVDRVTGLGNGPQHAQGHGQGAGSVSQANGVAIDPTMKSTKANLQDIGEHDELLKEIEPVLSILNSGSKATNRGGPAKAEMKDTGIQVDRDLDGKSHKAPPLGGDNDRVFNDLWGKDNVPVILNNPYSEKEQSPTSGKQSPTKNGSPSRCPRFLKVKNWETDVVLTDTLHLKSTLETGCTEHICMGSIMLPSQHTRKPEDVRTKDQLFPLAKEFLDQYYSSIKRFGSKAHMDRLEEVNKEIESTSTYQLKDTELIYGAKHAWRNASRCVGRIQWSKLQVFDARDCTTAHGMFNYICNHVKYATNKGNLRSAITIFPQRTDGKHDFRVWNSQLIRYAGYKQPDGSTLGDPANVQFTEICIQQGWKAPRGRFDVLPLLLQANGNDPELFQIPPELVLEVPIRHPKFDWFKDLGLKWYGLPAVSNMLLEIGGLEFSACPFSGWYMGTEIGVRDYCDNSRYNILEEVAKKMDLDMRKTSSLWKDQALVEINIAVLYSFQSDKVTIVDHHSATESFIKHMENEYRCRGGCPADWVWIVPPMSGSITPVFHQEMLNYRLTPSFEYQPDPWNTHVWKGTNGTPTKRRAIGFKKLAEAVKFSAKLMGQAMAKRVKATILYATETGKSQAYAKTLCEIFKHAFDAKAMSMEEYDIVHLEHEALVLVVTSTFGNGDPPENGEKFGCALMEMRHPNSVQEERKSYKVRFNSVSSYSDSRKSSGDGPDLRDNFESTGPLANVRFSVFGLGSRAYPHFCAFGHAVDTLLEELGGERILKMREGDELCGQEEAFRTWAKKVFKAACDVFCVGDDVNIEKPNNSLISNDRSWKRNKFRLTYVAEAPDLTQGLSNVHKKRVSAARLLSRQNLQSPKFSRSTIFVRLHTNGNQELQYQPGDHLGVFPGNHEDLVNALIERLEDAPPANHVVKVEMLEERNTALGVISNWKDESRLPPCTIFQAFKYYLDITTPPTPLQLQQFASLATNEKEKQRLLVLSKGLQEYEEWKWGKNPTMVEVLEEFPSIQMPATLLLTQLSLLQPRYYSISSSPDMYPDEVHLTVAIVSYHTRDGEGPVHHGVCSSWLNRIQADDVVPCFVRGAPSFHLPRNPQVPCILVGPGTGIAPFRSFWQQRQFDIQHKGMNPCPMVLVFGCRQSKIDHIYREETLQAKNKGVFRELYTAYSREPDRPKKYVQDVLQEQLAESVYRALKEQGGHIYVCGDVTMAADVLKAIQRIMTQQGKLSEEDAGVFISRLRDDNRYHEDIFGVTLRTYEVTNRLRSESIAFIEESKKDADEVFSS

Nitric oxide synthase 1 [10] = biological target: Nitric oxide synthase 1 (Mus musculus, UniProt Q9Z0J4); test: Inhibition of mouse nNOS
[11] = Inhibition of bovine nNOS; set-up: species or system Bos taurus
Nitric oxide synthase 3 [12] = biological target: T5, Nitric oxide synthase 3 (Bos taurus, UniProt P29473); test: Inhibition of bovine eNOS
T5 sequence (P29473 whole entry): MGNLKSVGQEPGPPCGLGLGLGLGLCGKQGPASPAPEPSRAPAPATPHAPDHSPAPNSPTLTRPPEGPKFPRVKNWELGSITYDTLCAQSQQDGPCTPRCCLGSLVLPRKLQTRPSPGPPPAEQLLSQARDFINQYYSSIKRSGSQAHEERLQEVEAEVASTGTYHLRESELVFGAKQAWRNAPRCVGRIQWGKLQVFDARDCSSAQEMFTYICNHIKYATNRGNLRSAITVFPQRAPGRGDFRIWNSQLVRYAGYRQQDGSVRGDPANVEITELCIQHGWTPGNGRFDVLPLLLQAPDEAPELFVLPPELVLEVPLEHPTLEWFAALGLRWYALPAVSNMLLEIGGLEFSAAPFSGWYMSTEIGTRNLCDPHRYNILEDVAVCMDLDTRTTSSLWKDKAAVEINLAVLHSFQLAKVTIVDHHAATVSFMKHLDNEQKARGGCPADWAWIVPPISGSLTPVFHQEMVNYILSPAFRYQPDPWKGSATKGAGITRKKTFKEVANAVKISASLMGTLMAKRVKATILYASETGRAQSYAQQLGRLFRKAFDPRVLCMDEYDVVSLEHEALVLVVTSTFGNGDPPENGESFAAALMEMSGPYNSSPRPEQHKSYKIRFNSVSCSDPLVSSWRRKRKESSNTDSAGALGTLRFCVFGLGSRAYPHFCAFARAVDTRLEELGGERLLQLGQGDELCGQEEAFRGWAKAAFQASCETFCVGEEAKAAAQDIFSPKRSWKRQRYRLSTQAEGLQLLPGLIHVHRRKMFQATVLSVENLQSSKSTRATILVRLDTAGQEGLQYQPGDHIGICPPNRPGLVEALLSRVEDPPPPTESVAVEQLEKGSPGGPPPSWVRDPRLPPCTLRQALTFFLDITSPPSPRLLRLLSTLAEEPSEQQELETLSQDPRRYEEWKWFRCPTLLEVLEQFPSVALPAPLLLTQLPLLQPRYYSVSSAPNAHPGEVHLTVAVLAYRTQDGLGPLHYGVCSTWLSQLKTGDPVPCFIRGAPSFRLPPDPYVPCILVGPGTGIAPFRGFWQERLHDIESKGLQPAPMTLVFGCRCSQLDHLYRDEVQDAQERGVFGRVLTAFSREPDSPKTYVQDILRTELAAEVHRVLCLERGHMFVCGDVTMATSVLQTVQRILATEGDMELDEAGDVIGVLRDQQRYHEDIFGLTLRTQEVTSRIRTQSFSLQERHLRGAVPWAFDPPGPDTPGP

[13] = biological target: T6, Nitric oxide synthase, inducible (Mus musculus, UniProt P29477); test: Inhibition of mouse iNOS
T6 sequence (P29477 whole entry): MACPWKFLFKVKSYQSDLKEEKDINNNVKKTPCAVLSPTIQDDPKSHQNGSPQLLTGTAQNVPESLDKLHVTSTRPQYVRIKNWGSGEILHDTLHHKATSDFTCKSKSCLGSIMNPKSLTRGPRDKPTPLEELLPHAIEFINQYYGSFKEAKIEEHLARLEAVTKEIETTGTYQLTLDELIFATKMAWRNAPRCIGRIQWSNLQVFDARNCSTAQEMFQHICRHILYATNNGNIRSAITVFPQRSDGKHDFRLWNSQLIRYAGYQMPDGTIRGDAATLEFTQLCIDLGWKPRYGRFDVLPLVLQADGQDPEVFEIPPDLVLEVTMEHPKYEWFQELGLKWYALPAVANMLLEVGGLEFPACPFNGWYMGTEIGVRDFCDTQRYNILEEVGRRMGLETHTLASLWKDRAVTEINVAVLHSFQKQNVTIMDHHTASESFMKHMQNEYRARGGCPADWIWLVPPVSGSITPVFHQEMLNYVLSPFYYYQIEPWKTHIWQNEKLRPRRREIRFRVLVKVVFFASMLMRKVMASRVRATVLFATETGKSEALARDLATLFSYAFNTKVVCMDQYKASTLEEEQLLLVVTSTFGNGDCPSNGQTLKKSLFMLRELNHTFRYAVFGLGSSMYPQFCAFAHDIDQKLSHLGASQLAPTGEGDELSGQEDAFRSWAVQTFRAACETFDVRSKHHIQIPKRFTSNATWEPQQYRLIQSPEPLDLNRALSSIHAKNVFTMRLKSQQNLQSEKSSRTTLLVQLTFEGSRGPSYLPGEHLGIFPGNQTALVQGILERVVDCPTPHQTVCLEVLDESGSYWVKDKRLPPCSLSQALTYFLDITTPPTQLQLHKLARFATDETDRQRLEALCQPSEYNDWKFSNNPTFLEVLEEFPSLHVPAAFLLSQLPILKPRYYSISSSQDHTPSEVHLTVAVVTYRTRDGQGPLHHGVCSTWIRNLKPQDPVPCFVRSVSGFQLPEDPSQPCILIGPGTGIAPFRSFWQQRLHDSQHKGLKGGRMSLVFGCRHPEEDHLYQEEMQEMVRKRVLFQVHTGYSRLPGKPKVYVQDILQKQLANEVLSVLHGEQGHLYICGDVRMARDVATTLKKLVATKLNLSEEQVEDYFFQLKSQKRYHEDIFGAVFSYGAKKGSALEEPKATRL

Nitric oxide synthase 1 [14] = biological target: T2, Nitric oxide synthase 1; test: Inhibition of human nNOS assessed as dissociation constant
Nitric oxide synthase 3 [15] = biological target: T3, Nitric oxide synthase 3; test: Inhibition of human eNOS assessed as inhibition constant
[16] = biological target: T4, Nitric oxide synthase, inducible; test: Inhibition of human iNOS assessed as inhibition constant
Nitric oxide synthase 1 [17] = biological target: T2, Nitric oxide synthase 1; test: Inhibition of human nNOS

T1 sequence (O94760 whole entry): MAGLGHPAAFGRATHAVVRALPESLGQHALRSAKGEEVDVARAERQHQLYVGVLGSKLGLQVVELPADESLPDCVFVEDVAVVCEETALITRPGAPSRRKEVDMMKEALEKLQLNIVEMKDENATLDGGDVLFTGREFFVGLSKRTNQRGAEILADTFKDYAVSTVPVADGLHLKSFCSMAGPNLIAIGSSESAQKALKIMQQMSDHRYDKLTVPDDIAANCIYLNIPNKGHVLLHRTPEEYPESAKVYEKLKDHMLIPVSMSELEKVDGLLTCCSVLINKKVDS

SMILES: COCCNC(=N)NCCC[C@H](N)c1noc(=O)[nH]1
Ki [1]: 7 µM | IC50 [2]: 18 µM

SMILES: COCCNC(=N)NCCC[C@H](N)c1nnn[nH]1
Ki [1]: 14 µM | IC50 [2]: 34 µM

SMILES: CC(=N)NCCSCC[C@H](N)C(=O)O [GW-274150]
IC50 [6]: 2.19 µM | IC50 (Nitric oxide synthase 1 [7]): 177 µM | IC50 (Nitric oxide synthase 3 [8]): 177 µM

SMILES: CN(C)C(=N)NCCC[C@H](N)C(=O)O
Ki (Nitric oxide synthase 1 [9]): 0.67 µM

SMILES: CC(=N)NCCC[C@H](N)C(=O)O [L-NIO]
IC50 (Nitric oxide synthase 1 [10]): 3 µM

SMILES: COCCNC(=N)NCCC[C@H](N)C(=O)NO
IC50 [2]: 131 µM

SMILES: N=C(NN)NO
IC50 [11]: 17 µM | IC50 (Nitric oxide synthase 3 [12]): 23 µM | IC50 [13]: 23 µM

SMILES: CCSC(=N)NCCC[C@H](N)C(=O)O
Kd (Nitric oxide synthase 1 [14]): 0.001 µM | Ki (Nitric oxide synthase 3 [15]): 0.024 µM | Ki [16]: 0.017 µM | IC50 (Nitric oxide synthase 1 [17]): 0.001 µM

Continued, values first:

Ki (Nitric oxide synthase 1 [3]): 0.037 µM | Ki (Nitric oxide synthase 3 [4]): 9 µM | Ki [5]: 0.047 µM
SMILES: N=C(N)SCCc1cccc(CCSC(=N)N)c1

Ki (Nitric oxide synthase 1 [3]): 14 µM | Ki (Nitric oxide synthase 3 [4]): 31 µM | Ki [5]: 11 µM
SMILES: CCCCSC(=N)N

Ki (Nitric oxide synthase 1 [3]): 0.63 µM | Ki (Nitric oxide synthase 3 [4]): 23 µM | Ki [5]: 5.6 µM
SMILES: N=C(N)SCc1ccccc1 [BENZYL CARBAMIMIDOTHIOATE]

Ki (Nitric oxide synthase 1 [3]): 0.029 µM | Ki (Nitric oxide synthase 3 [4]): 0.67 µM | Ki [5]: 0.24 µM
SMILES: CCCSC(=N)N

Reference: ChEMBL document CHEMBL5360519, “Chemical similarities and differences among inhibitors of nitric oxide synthase, arginase and dimethylarginine dimethylaminohydrolase-1: Implications for the design of novel enzyme inhibitors modulating the nitric oxide pathway” (Bioorg Med Chem, 2022)
